{"source": "patent EP0739894A1", "about": "“THIAZOLINE DERIVATIVE” (TAISHO PHARMACEUTICAL CO. LTD, priority 1994, dated 1995)", "key": {"blood platelet": {"test_system": "blood platelet", "assay": "Human in vitro blood platelet aggregation inhibition test (ADP-induced, PRP)", "assay_type": "cell-based", "details": "0.05 h", "description": "Citrated blood (the volume ratio of 3.13 % sodium citrate solution and blood is 1:9) was collected from the cubital vein of a healthy human who had not received any drugs known to affect the function of blood platelet within 2 weeks prior to starting the test, and centrifuged at 120 x g at room temperature for 15 minutes. The resulting supernatant was separated to give platelet rich plasma (PRP), the remaining precipitate was further centrifuged at 1500 x g for 10 minutes, and the resulting supernatant was separated to give platelet poor plasma (PPP).\nThe blood platelet counts of PRP were adjusted to 50 ∼ 60 × 10^4/µl by diluting with PPP.\nBlood platelet aggregation was determined according to the method of Born G.V.R., [Nature, vol. 194, page 927 (1962)] using adenosine diphosphate (produced by Sigma Co.; hereinafter referred to as \"ADP\") as an aggregation-inducing substance. That is, a solution of the compound of Formula (I) as a test drug in dimethyl sulfoxide was adjusted to the desired concentration with a physiological saline solution. 25 µl of the solution was added to 250 µl of PRP and incubated at 37°C for 3 minutes, and 25 µl of ADP (final concentration : 7 µM) was added thereto. […]"}, "[1]": {"assay": "Solubility test in Britton-Robinson buffered solution, HPLC", "assay_type": "physicochemical", "details": "britton-robinson buffer, aqueous buffer; Britton - Robinson broad buffered solution pH 4, ionic strength 0.125, 25°C", "description": "(§1) Solubility and stability tests were carried out according to the method of R.H. Blythe et al [J. Pharm. Sci., vol. 66, page 785 (1977)].\nA Britton - Robinson broad buffered solution (pH 4) was prepared, and adjusted to 0.125 of the ionic strength by adding sodium chloride. An excess amount of Compound 3 was added to the resulting solution and dissolved with heating, and then after stirring at 25°C for a desired time, the solubility which became constant was measured by HPLC under the following conditions. • Column : TSK-Gel, ODS-80TM, 4φ × 150 mm • Column temperature : 50°C • Mobile phase : Water : CH3CN : SDS : phosphoric acid = 500:500:3:1 • Detection wave length : 246 nm • Flow rate : 1.0 ml/min. • Injection amount : 10 µl"}, "[2]": {"assay": "Stability test in phosphate buffer, decomposition rate constants extrapolated to 25°C", "assay_type": "physicochemical", "details": "phosphate buffer adjusted to pH 4.0, 20 µg/ml; estimated from rate constants of decomposition at 100°C and 65°C", "description": "as §1\nA phosphate buffer (pH 7) (0.1M disodium hydrogenphosphate + 0.1M sodium dihydrogenphosphate) was prepared, and adjusted to pH 4.0 with phosphoric acid. Compound 3 was added to the buffered solution at the concentration of 20 µg/ml, and which was used as a test solution. The content of Compound 3 in the test solution stored at 100°C and 65°C respectively was determined, and the rate constant of decomposition at each temperature was calculated. As a result, it was estimated that the term for remaining a 95% content of Compound 3 at 25°C was 17.6 years."}}, "data": [{"smiles": "Cc1c(C(=O)NCCC(=O)O)sc(=NC(=O)c2ccc(C(=N)N3CCN(c4ccccn4)CC3)cc2)n1C", "note": "[Compound 3, N-(2-Carboxyethyl)-2-{4-[4-(pyridin-2-yl)piperadinylimidoyl]benzoylimino}-3,4-dimethyl-3H-thiazoline-5-carboxamide]", "values": [{"measurement": "IC50", "setting": "blood platelet", "result": 21.5, "unit": "nM"}, {"measurement": "solubility", "setting": "[1]", "result": 4300, "unit": "µg/mL"}, {"measurement": "term for remaining a 95% content at 25°C", "setting": "[2]", "result": 17.6, "unit": "years"}]}]}
